# Assay results as given in patent publication US9642835B2, “Modulators of GTPase and use in relevant treatment” (STC.UNM, priority 2010, dated 2017).
# Test system: RBL-2H3 cells
# Test: RBL cell morphology, actin and Cdc42 distribution after activation
# Format: cell-based, rat
# Conditions: 10 μM
# Method: Live cell microscopy was carried out on RBL-2H3 cells. Cells were grown on coverslips overnight, washed and overlaid with Tyrode's buffer (10 mM Hepes, pH 7.4, 130 mM NaCl, 5 mM KCl, 1.4 mM CaCl2, 1 mM MgCl2, 5.6 mM glucose and 0.1% BSA). Time lapse images were taken after addition of 10 μM MLS000693334 (final concentration) at 60 s intervals for up to 30 min. Activation with Thy-1 cross-linking was performed as described {Surviladze, 1998 #50}. Briefly, RBL cells incubated with OX7 mAb (Santa Cruz Biothechnology) final concentration 50 ug/ml for 1 h at 37 C. The unbound OX7 mAb was washed out with Tyrode's solution and activation initiated by adding anti-mouse IgG (25 ug/ml) (Jackson Immunoresearch Laboratories). Imaging was performed using a Bio-Rad Radiance 2100 confocal microscope equipped with a 60×1.4 NA oil immersion objective equipped with Lasersharp3000 software.
# RBL-2H3 cells were grown in RPMI supplemented with 10% fetal bovine serum on cover slips. Semi-confluent cells were washed with Tyrode's solution and incubated with DMSO (vehicle) or 10 μM MLS000693334 for 1 h at 37° C. Inhibitor treated and un-treated cells were stimulated with 1 μg/ml DNP-BSA for 30 min as previously described {Wilson, 1991 #52}. Activation stopped by transferring of samples on ice. […]
smiles,measurement,value
"COc1ccc(C2CC(c3ccccc3)=NN2c2ccc(S(N)(=O)=O)cc2)cc1 (centres unmarked) [MLS000693334, 4-[3-(4-methoxyphenyl)-5-phenyl-3,4-dihydropyrazol-2-yl]benzenesulfonamide]",Filopodia formation and cell spreading after cross-linking of Thy-1,dramatically inhibits
same,Morphology of resting RBL-2H3 cells,no change in morphology
